Activity calls are given as the source filed them. No cut-off for these calls is given here.
What was measured:
[1] = target: T1, Adrenergic receptor alpha-1 (Rattus norvegicus, UniProt P15823+P23944+P43140); experiment: In vitro binding affinity determined for alpha-1 adrenergic receptor by the displacement of [3H]- prazosin.; type: protein assay
T1 sequence (P15823 whole entry): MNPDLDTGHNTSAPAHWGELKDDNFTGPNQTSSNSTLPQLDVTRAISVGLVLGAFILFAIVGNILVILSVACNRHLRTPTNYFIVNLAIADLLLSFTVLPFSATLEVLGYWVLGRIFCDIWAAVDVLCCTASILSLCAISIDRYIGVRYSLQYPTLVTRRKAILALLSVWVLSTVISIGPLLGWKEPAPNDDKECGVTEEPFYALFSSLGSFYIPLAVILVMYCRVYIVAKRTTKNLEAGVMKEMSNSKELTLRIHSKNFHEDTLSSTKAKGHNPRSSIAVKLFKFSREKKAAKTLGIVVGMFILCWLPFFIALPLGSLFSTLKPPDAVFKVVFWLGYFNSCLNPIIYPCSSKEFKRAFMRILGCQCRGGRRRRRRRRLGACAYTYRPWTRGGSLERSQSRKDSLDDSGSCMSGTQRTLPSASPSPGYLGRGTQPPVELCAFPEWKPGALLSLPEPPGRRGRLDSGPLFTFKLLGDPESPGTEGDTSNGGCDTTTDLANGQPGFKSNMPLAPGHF
T1 sequence (P23944 whole entry): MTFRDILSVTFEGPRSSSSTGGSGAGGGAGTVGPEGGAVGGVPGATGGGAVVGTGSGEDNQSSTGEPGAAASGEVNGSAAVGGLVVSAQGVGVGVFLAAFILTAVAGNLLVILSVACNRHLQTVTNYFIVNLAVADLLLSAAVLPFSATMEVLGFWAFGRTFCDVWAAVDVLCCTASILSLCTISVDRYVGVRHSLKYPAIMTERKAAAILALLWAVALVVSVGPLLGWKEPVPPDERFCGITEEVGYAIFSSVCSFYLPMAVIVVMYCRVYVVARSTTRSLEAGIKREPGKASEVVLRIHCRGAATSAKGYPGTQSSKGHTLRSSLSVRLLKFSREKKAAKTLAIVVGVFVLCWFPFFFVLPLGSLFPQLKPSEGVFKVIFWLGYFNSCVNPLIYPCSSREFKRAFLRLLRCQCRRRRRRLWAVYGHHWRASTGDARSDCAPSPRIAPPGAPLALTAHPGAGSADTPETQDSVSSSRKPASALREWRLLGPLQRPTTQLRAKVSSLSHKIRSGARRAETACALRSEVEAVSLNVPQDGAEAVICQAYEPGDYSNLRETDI
T1 sequence (P43140 whole entry): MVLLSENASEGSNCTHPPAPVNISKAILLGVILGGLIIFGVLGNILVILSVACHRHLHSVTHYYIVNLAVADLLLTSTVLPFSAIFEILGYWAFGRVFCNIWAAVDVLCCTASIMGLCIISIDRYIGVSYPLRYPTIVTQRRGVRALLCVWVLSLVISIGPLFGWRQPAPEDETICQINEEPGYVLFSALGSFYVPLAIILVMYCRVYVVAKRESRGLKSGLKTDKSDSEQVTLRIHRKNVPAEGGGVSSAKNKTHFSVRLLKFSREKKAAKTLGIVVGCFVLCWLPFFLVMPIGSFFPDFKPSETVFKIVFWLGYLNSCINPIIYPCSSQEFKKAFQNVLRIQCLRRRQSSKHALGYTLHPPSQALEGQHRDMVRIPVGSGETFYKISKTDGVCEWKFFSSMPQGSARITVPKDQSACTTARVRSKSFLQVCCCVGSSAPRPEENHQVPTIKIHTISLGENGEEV

[2] = target: Adrenergic receptor alpha-2 (Rattus norvegicus) (UniProt P22086+P19328+P22909); experiment: In vitro binding affinity determined for alpha-2 adrenergic receptor by the percentage displacement of [3H]- clonidine at 10e-6 M; Not active :Less than 50% activity.; type: protein assay
Rattus norvegicus = experiment: Antihypertensive activity determined in spontaneously hypertensive rats(SHR) by percent reduction in blood pressure at 5 mg/kg peroral administration at 4 hour; type: functional; settings: route oral
[3] = system: Adrenergic receptor alpha-2 (Oryctolagus cuniculus); experiment: Competitive antagonist activity of the pre junctional alpha-2 adrenergic receptor mediated vasoconstrictor action of norepinephrine expressed as concentration producing 40% reduction in contractile response at 10e-5 M; No activity
[4] = system: Adrenergic receptor alpha-1 (Oryctolagus cuniculus)
[5] = target: Adrenergic receptor alpha; experiment: Tested for functional alpha-antagonist activity against norepinephrine in rabbit aorta and pulmonary artery.; type: tissue-based, Oryctolagus cuniculus

Structure (SMILES)	Ki [1] [nM]	Displacement [2] [%]	other results
COCCNC(=O)C1CCN(c2nc(N)c3cc(OC)c(OC)cc3n2)CC1	1.13	< 50	
COc1cc2nc(N3CCC(C(=O)NC4CCCC4)CC3)nc(N)c2cc1OC	0.63	< 50	
COc1cc2nc(N3CCC(C(N)=O)CC3)nc(N)c2cc1OC	1.46		
COc1cc2nc(N3CCC(C(=O)NCCc4ccccc4)CC3)nc(N)c2cc1OC	0.1		
CCCCNC(=O)COC1CCN(c2nc(N)c3cc(OC)c(OC)cc3n2)CC1	0.79		
CCCCNC(=O)C1CCN(c2nc(N)c3cc(OC)c(OC)cc3n2)CC1	0.67		
COc1cc2nc(N3CCC(C(=O)NCc4ccccc4)CC3)nc(N)c2cc1OC	0.22		
CCCCNC(=O)C1CCCN(c2nc(N)c3cc(OC)c(OC)cc3n2)C1 (centres undefined)	8.25	< 50	
COc1cc2nc(N3CCC(C(=O)N4CCOCC4)CC3)nc(N)c2cc1OC	1.14	< 50	
CCN(CC)C(=O)C1CCCN(c2nc(N)c3cc(OC)c(OC)cc3n2)C1 (centres undefined)	116.73	< 50	Reduction (Rattus norvegicus): 16%
CCN(CC)C(=O)C1CCN(c2nc(N)c3cc(OC)c(OC)cc3n2)CC1	1.11	< 50	
COc1cc2nc(N3CCC(C(=O)NCC4CC4)CC3)nc(N)c2cc1OC	0.9	< 50	
COc1cc2nc(N3CCC(CC(=O)NCC4CC4)CC3)nc(N)c2cc1OC	1.08		EC40 [3]: inactive; EC40 [4]: 97 nM; pA2 [5]: 7.25
COc1cc2nc(N3CCC(C(=O)NCCOc4ccccc4)CC3)nc(N)c2cc1OC	0.42		
COc1cc2nc(N3CCC(C(=O)Nc4ccccc4)CC3)nc(N)c2cc1OC	0.47	< 50	
COc1cc2nc(N3CCC(C(=O)N(C)Cc4ccccc4)CC3)nc(N)c2cc1OC	0.2		
CCNC(=O)C1CCN(c2nc(N)c3cc(OC)c(OC)cc3n2)CC1	1.64	< 50	
CCCCNC(=O)CC1CCN(c2nc(N)c3cc(OC)c(OC)cc3n2)CC1	1.4		
CCCNC(=O)CC1CCN(c2nc(N)c3cc(OC)c(OC)cc3n2)CC1	0.65		EC40 [3]: inactive; EC40 [4]: 18 nM; pA2 [5]: 7.42
CCCCNC(=O)CCC1CCN(c2nc(N)c3cc(OC)c(OC)cc3n2)CC1	0.47		
COc1cc2nc(N3CCC(C(=O)NCCO)CC3)nc(N)c2cc1OC	1.73	< 50	Reduction (Rattus norvegicus): 5%
